Columns and labels:
[1] = tested on: bone marrow-derived mast cells (BMMC); test: mast cell stimulus-coupled degranulation (release of β-glucuronidase); assay type: cell-based, Balb/C mice
Experimental: In another protocol, a population of mast cells was cultivated from murine bone marrow as follows. Briefly, bone marrows from Balb/C mice were flushed from the femur using PBS and a 27 g needle. The cells were cultured in a mixture of ⅔ RPMI-1640 with 19% FBS and cells that secreted IL-3. The bone marrow cells were allowed to differentiate for 18-25 days in the IL-3-containing mixture before being used for experiments. Bone marrow cells cultured in this manner have a phenotype similar to mucosal mast cells and are referred to as bone marrow-derived mast cells (BMMC).
The homogeneity of the in vitro propagated mast cells was checked by conventional flow cytometric techniques and staining for cell-type specific markers. Between days 14 and 21 of propagation, mature mast cells were harvested and prepared for the test cultures. The objective was to assess of the effect of compounds such as dehydroepiandrosterone on mast cell stimulus-coupled degranulation. Prepared mast cells were dispensed into test culture wells at a density of 1×10^7 cells/mL. In control cultures, mast cells were induced to degranulate after cross linking of IgE receptors with IgE antigen-antibody complexes. In parallel groups of cultures mast cells were preincubated dehydroepiandrosterone at various doses followed by activation using anti-IgE antibody. There was no detectable degranulation of mast cells as measured by release of β-glucuronidase from cytosolic storage granules of the cells in the absence of the stimulus. Introduction of anti-Ig-E receptor antibody to the cultures caused a significant release of β-glucuronidase.

[2] = tested on: ovalbumin (OVA) sensitized mouse model of asthma; test: ovalbumin (OVA) sensitized mouse model of asthma; assay type: in vivo, BALB/c mice; settings: for IL-13: once daily subcutaneous injection, dexamethasone 5 mg/kg, triol 1 mg/mouse; for level of IL-5 in lung tissue: vehicle value stated for day 38, subcutaneous treatment
Experimental: BALB/c mice were sensitized by intraperitoneal injection with OVA (in alum adjuvant) on days 1, and 12. Airways were challenged with OVA on days 28 and 30 by delivery of OVA to the lung, or with saline. On day 31, six mice were with saline and 6 mice challenged with OVA were sacrificed and lung tissue was analyzed. The remaining animals were divided into 6 groups (6 mice per group). Groups of the mice were treated once daily by subcutaneous injection as follows. Group 1 vehicle control (0.1% carboxymethyl cellulose, 0.9% saline, 2% Tween 80, 0.05% phenol). Group 2 dexamethasone (5 mg/kg). Group 3 androstane-3α,16α,17α-triol (1 mg/mouse). Three animals in groups 1-3 were sacrificed on day 35 at 1 hr after final treatment and the remaining 3 animals in groups 1-3 were sacrificed on day 38.

[3] = day 35, 1 hr after final treatment

Row | Structure (SMILES) | inhibition at 100 µM ([1]; Mus musculus, BMMC, 100 μM, pre-exposed 5 to 10 minutes before activation with anti-IgE antigen-antibody complexes) | inhibition of degranulation at lower levels ([1]; levels lower than 100 μM) | degranulation on exposure to compound alone ([1]; no stimulus, release of β-glucuronidase) | IL-13 [2, 3] | IL-13 ([2]; day 38) | level of IL-5 in lung tissue [2] | capacity to limit eosinophil burden and reduce key inflammatory mediators (IL-5, IL-13, cysteinyl leukotrienes) ([2]; OVA sensitized mice) | IL-13 increase (rebound) after treatment ([2]; compared with dexamethasone treated animals)
1 | C[C@]12CC[C@H](O)CC1=CC[C@@H]1[C@@H]2CC[C@]2(C)C(=O)CC[C@@H]12 [dehydroepiandrosterone] | ~70% | proportionately less capacity to inhibit degranulation | no measurable degranulation | – | – | – | – | –
2 | C[C@@H]1C[C@H]2[C@@H]3CCC4=CC(=O)C=C[C@]4(C)[C@@]3(F)[C@@H](O)C[C@]2(C)[C@@]1(O)C(=O)CO [dexamethasone] | – | – | – | 340 pg/mL | 390 pg/mL | 145 pg/mL | – | –
3 | C[C@]12CC[C@H]3[C@@H](CCC4C[C@H](O)CC[C@@]43C)[C@@H]1C[C@@H](O)[C@H]2O (stereo partly drawn) [androstane-3α,16α,17α-triol] | – | – | – | 195 pg/mL | 210 pg/mL | 90 pg/mL | limit eosinophil burden and to reduce key inflammatory mediators | did not generate an IL-13 increase
